Legend:
[1] = target: hOX1R (Homo sapiens, UniProt O43613); assay: FLIPR Ca2+ flux assay, orexin-1 receptor antagonism; type: cell-based; details: CHO cells; agonist 70 pM Ala-6,12 human orexin-A
[2] = target: human orexin-2 receptor (Homo sapiens (Human), UniProt O43614); assay: FLIPR Ca2+ flux assay, orexin-2 receptor antagonism; type: cell-based; details: CHO cells; agonist 70 pM Ala-6,12 human orexin-A; read-out: hOX2R FLIPR IC50
Method: In a typical experiment the OX1 and OX2 receptor antagonistic activity of the compounds of the present invention was determined in accordance with the following experimental method. For intracellular calcium measurements, Chinese hamster ovary (CHO) cells expressing the rat orexin-1 receptor or the human orexin-2 receptor, are grown in Iscove's modified DMEM containing 2 mM L-glutamine, […], 1% hypoxanthine-thymidine supplement, 100 U/ml penicillin, 100 μg/ml streptomycin and 10% heat-inactivated fetal calf serum (FCS). The cells are seeded at 20,000 cells/well into Becton-Dickinson black 384-well clear bottom sterile plates coated with poly-D-lysine. All reagents were from GIBCO-Invitrogen Corp. The seeded plates are incubated overnight at 37° C. and 5% CO2. Ala-6,12 human orexin-A as the agonist is prepared as a 1 mM stock solution in 1% bovine serum albumin (BSA) and diluted in assay buffer (HBSS containing 20 mM HEPES, 0.1% BSA and 2.5 mM probenecid, pH7.4) for use in the assay at a final concentration of 70 pM. Test compounds are prepared as 10 mM stock solution in DMSO, then diluted in 384-well plates, first in DMSO, then assay buffer. On the day of the assay, cells are washed 3 times with 100 μl assay buffer and then incubated for 60 min (37° C., 5% CO2) in 60 μl assay buffer containing 1 μM Fluo-4AM ester, 0.02% pluronic acid, and 1% BSA. The dye loading solution is then aspirated and cells are washed 3 times with 100 μl assay buffer. 30 μl of that same buffer is left in each well. Within the Fluorescent Imaging Plate Reader (FLIPR, Molecular Devices), test compounds are added to the plate in a volume of 25 μl, incubated for 5 min and finally 25 μl of agonist is added. Fluorescence is measured for each well at 1 second intervals for 5 minutes and the height of each fluorescence peak is compared to the height of the fluorescence peak induced by 70 pM Ala-6,12 orexin-A with buffer in place of antagonist. […] The intrinsic orexin receptor antagonist activity of a compound which may be used in the present invention may be determined by these assays.

human orexin-2 receptor, sequence (O43614 whole entry): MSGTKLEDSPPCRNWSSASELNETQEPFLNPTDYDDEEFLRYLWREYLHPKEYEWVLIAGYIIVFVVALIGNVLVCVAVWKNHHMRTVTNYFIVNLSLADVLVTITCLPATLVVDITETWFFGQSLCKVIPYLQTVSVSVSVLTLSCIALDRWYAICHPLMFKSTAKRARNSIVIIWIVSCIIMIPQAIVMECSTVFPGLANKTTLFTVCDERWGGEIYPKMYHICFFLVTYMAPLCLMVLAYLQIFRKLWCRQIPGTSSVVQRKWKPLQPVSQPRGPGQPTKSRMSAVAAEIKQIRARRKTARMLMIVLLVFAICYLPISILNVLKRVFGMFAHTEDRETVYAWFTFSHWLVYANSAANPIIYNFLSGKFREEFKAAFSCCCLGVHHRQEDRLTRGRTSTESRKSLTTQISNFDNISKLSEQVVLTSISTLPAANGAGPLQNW

## COC(=O)c1c(OC)ccnc1O[C@@H]1CC[C@@H](C)N(C(=O)c2ccccc2-n2nccn2)C1 [Example 1, Methyl 4-methoxy-2-{[(3R,6R)-6-methyl-1-{[2-(2H-1,2,3-triazol-2-yl)phenyl]carbonyl}piperidin-3-yl]oxy}pyridine-3-carboxylate]
[1]
  IC50: 1340 nM
[2]
  IC50: 33 nM

## COC(=O)c1c(OC)ccnc1O[C@@H]1CC[C@@H](C)N(C(=O)c2cccc(F)c2-n2nccn2)C1 [Example 2, Methyl 2-{[(3R,6R)-1-{[3-fluoro-2-(2H-1,2,3-triazol-2-yl)phenyl]carbonyl}-6-methylpiperidin-3-yl]oxy}-4-methoxypyridine-3-carboxylate]
[1]
  IC50: 2900 nM
[2]
  IC50: 37 nM

## COC(=O)c1c(OC)ccnc1O[C@@H]1CC[C@@H](C)N(C(=O)c2ccc(Cl)cc2-n2nccn2)C1 [Example 3]
[1]
  IC50: 1420 nM
[2]
  IC50: 33.6 nM

## COC(=O)c1c(OC)ccnc1O[C@@H]1CC[C@@H](C)N(C(=O)c2ccc(F)cc2-n2nccn2)C1 [Example 4, methyl 2-{[(3R,6R)-1-{[4-fluoro-2-(2H-1,2,3-triazol-2-yl)phenyl]carbonyl}-6-methylpiperidin-3-yl]oxy}-4-methoxypyridine-3-carboxylate]
[1]
  IC50: 3200 nM
[2]
  IC50: 764 nM

## COC(=O)c1c(OC)ccnc1O[C@@H]1CC[C@@H](C)N(C(=O)c2ccc(F)cc2-c2nc(C)no2)C1 [Example 5, methyl 2-{[(3R,6R)-1-{[4-fluoro-2-(3-methyl-1,2,4-oxadiazol-5-yl)phenyl]carbonyl}-6-methylpiperidin-3-yl]oxy}-4-methoxypyridine-3-carboxylate]
[1]
  IC50: 3100 nM
[2]
  IC50: 52 nM

## COC(=O)c1c(OC)ccnc1O[C@@H]1CC[C@@H](C)N(C(=O)c2c(F)cccc2-n2nccn2)C1 [Example 6, methyl 2-{[(3R,6R)-1-{[2-fluoro-6-(2H-1,2,3-triazol-2-yl)phenyl]carbonyl}-6-methylpiperidin-3-yl]oxy}-4-methoxypyridine-3-carboxylate]
[1]
  IC50: 2310 nM
[2]
  IC50: 82.9 nM

## COC(=O)c1c(OC)ccnc1O[C@@H]1CC[C@@H](C)N(C(=O)c2cc(F)ccc2-n2nccn2)C1 [Example 7, methyl 2-{[(3R,6R)-1-{[5-fluoro-2-(2H-1,2,3-triazol-2-yl)phenyl]carbonyl}-6-methylpiperidin-3-yl]oxy}-4-methoxypyridine-3-carboxylate]
[1]
  IC50: 1460 nM
[2]
  IC50: 27.6 nM

## COC(=O)c1c(OC)ccnc1O[C@@H]1CC[C@@H](C)N(C(=O)c2c(F)cccc2-c2noc(C)n2)C1 [Example 8, methyl 2-{[(3R,6R)-1-{[2-fluoro-6-(5-methyl-1,2,4-oxadiazol-3-yl)phenyl]carbonyl}-6-methylpiperidin-3-yl]oxy}-4-methoxypyridine-3-carboxylate]
[1]
  IC50: 10000 nM
[2]
  IC50: 71.1 nM

## COC(=O)c1c(OC)ccnc1O[C@@H]1CC[C@@H](C)N(C(=O)c2cc(F)ccc2-c2noc(C)n2)C1 [Example 9]
[1]
  IC50: 1500 nM
[2]
  IC50: 36.7 nM

## COC(=O)c1c(OC)ccnc1O[C@@H]1CC[C@@H](C)N(C(=O)c2ccc(F)cc2-c2noc(C)n2)C1 [Example 10, methyl 2-{[(3R,6R)-1-{[4-fluoro-2-(5-methyl-1,2,4-oxadiazol-3-yl)phenyl]carbonyl}-6-methylpiperidin-3-yl]oxy}-4-methoxypyridine-3-carboxylate]
[1]
  IC50: 10000 nM
[2]
  IC50: 58.7 nM

## COC(=O)c1c(OC)ccnc1O[C@@H]1CC[C@@H](C)N(C(=O)c2cccc(F)c2-c2noc(C)n2)C1 [Example 11, methyl 2-{[(3R,6R)-1-{[3-fluoro-2-(5-methyl-1,2,4-oxadiazol-3-yl)phenyl]carbonyl}-6-methylpiperidin-3-yl]oxy}-4-methoxypyridine-3-carboxylate]
[1]
  IC50: 2270 nM
[2]
  IC50: 31.8 nM

## COC(=O)c1c(OC)ccnc1O[C@@H]1CC[C@@H](C)N(C(=O)c2c(F)cccc2-c2nc(C)no2)C1 [Example 12, methyl 2-{[(3R,6R)-1-{[2-fluoro-6-(3-methyl-1,2,4-oxadiazol-5-yl)phenyl]carbonyl}-6-methylpiperidin-3-yl]oxy}-4-methoxypyridine-3-carboxylate]
[1]
  IC50: 4470 nM

## COC(=O)c1c(OC)ccnc1O[C@@H]1CC[C@@H](C)N(C(=O)c2cc(F)ccc2-c2nc(C)no2)C1 [Example 13, methyl 2-{[(3R,6R)-1-{[5-fluoro-2-(3-methyl-1,2,4-oxadiazol-5-yl)phenyl]carbonyl}-6-methylpiperidin-3-yl]oxy}-4-methoxypyridine-3-carboxylate]
[1]
  IC50: 1160 nM
[2]
  IC50: 34.6 nM

## COC(=O)c1c(OC)ccnc1O[C@@H]1CC[C@@H](C)N(C(=O)c2cccc(C)c2-n2nccn2)C1 [Example 14, methyl 4-methoxy-2-{[(3R,6R)-6-methyl-1-{[3-methyl-2-(2H-1,2,3-triazol-2-yl)phenyl]carbonyl}piperidin-3-yl]oxy}pyridine-3-carboxylate]
[1]
  IC50: 777 nM
[2]
  IC50: 37.9 nM

## COC(=O)c1c(OC)ccnc1O[C@@H]1CC[C@@H](C)N(C(=O)c2ccc(OC)cc2-n2nccn2)C1 [Example 15, methyl 4-methoxy-2-{[(3R,6R)-1-{[4-methoxy-2-(2H-1,2,3-triazol-2-yl)phenyl]carbonyl}-6-methylpiperidin-3-yl]oxy}pyridine-3-carboxylate]
[1]
  IC50: 10000 nM
[2]
  IC50: 51 nM

## COC(=O)c1c(OC)ccnc1O[C@@H]1CC[C@@H](C)N(C(=O)c2ccc(OC)nc2-n2nccn2)C1 [Example 17, methyl 4-methoxy-2-{[(3R,6R)-1-{[6-methoxy-2-(2H-1,2,3-triazol-2-yl)pyridin-3-yl]carbonyl}-6-methylpiperidin-3-yl]oxy}pyridine-3-carboxylate]
[1]
  IC50: 10000 nM
[2]
  IC50: 52 nM

## COC(=O)c1c(OC)ccnc1O[C@@H]1CC[C@@H](C)N(C(=O)c2cccc(F)c2-c2nc(C)no2)C1 [Example 18, methyl 2-{[(3R,6R)-1-{[3-fluoro-2-(3-methyl-1,2,4-oxadiazol-5-yl)phenyl]carbonyl}-6-methylpiperidin-3-yl]oxy}-4-methoxypyridine-3-carboxylate]
[1]
  IC50: 932 nM
[2]
  IC50: 39.5 nM

## COC(=O)c1c(OC)ccnc1O[C@@H]1CC[C@@H](C)N(C(=O)c2ccccc2-c2ncccn2)C1 [Example 19]
[1]
  IC50: 1870 nM
[2]
  IC50: 114 nM

## COC(=O)c1c(OC)ccnc1O[C@@H]1CC[C@@H](C)N(C(=O)c2ccc(F)cc2-c2ncccn2)C1 [Example 21, methyl 2-({(3R,6R)-1-[(4-fluoro-2-pyrimidin-2-ylphenyl)carbonyl]-6-methylpiperidin-3-yl}oxy)-4-methoxypyridine-3-carboxylate]
[1]
  IC50: 1460 nM
[2]
  IC50: 71.2 nM

## COC(=O)c1c(OC)ccnc1O[C@@H]1CC[C@@H](C)N(C(=O)c2cccc(F)c2-c2ncccn2)C1 [Example 22, methyl 2-({(3R,6R)-1-[(3-fluoro-2-pyrimidin-2-ylphenyl)carbonyl]-6-methylpiperidin-3-yl}oxy)-4-methoxypyridine-3-carboxylate]
[1]
  IC50: 3780 nM
[2]
  IC50: 117 nM

## COC(=O)c1c(OC)ccnc1O[C@@H]1CC[C@@H](C)N(C(=O)c2ccccc2-n2ncnn2)C1 [Example 23, Methyl 4-methoxy-2-{[(3R,6R)-6-methyl-1-{[2-(2H-tetrazol-2-yl)phenyl]carbonyl}piperidin-3-yl]oxy}pyridine-3-carboxylate]
[1]
  IC50: 2140 nM
[2]
  IC50: 27.7 nM

## CCOC(=O)c1c(OC)ccnc1O[C@@H]1CC[C@@H](C)N(C(=O)c2ccccc2-n2nccn2)C1 [Example 25, ethyl 4-methoxy-2-{[(3R,6R)-6-methyl-1-{[2-(2H-1,2,3-triazol-2-yl)phenyl]carbonyl}piperidin-3-yl]oxy}pyridine-3-carboxylate]
[1]
  IC50: 814 nM
[2]
  IC50: 19.3 nM

## CCOC(=O)c1c(OC)ccnc1O[C@@H]1CC[C@@H](C)N(C(=O)c2cccc(F)c2-n2nccn2)C1 [Example 26]
[1]
  IC50: 2790 nM
[2]
  IC50: 39.6 nM

## CCOc1ccnc(O[C@@H]2CC[C@@H](C)N(C(=O)c3ccccc3-n3nccn3)C2)c1C(=O)OC [Example 27, Methyl 4-ethoxy-2-{[(3R,6R)-6-methyl-1-{[2-(2H-1,2,3-triazol-2-yl)phenyl]carbonyl}piperidin-3-yl]oxy}pyridine-3-carboxylate]
[1]
  IC50: 7000 nM
[2]
  IC50: 167 nM

## CCOC(=O)c1c(OCC)ccnc1O[C@@H]1CC[C@@H](C)N(C(=O)c2ccccc2-n2ncnn2)C1 [Example 28, Ethyl 4-ethoxy-2-{[(3R,6R)-6-methyl-1-{[2-(2H-tetrazol-2-yl)phenyl]carbonyl}piperidin-3-yl]oxy}pyridine-3-carboxylate]
[1]
  IC50: 4130 nM
[2]
  IC50: 18 nM
